Reference: ChEMBL document CHEMBL1212929, “Glucosylated deferiprone and its brain uptake: implications for developing glucosylated hydroxypyridinone analogues intended to cross the blood-brain barrier” (J Med Chem, 2010)

Assays:
[1] = Biodistribution in Dunkin-Hartley guinea pig brain parenchyma at 800 uM, iv after 20 mins using [3H]mannitol vascular space marker by scintillation counting; assay type: ADME, organism-based, Cavia porcellus; settings: in vivo
[2] = Biodistribution in Dunkin-Hartley guinea pig brain at 800 uM, iv after 20 mins using [3H]mannitol vascular space marker by scintillation counting; assay type: ADME, organism-based, Cavia porcellus; settings: in vivo

Row | Compound | Drug uptake [1] | Drug uptake [2]
1 | Cc1c(O[C@@H]2O[C@H](CO)[C@@H](O)[C@H](O)[C@H]2O)c(=O)ccn1C | < 0.001 mL/g | < 0.001 mL/g
2 | Cc1c(O)c(=O)ccn1C [DEFERIPRONE] | 0.044 mL/g | 0.052 mL/g
